# Test results reported in PubChem BioAssay (NCI).
#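 Where inhibition never reached the appropriate level, the endpoint shown equals the highest concentration tested. Otherwise, values were interpolated linearly from a five-concentration, 48-hour dose response in 96-well plates. Definition used: TGI = concentration required for complete inhibition of growth.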
# Assays:
# Test in all cases: inhibition of tumour cell growth, NCI panel, 48 h
# [1] = tested on: HCC-2998 colon
# [2] = tested on: SNB-19 CNS
# [3] = tested on: M19-MEL melanoma
# [4] = tested on: PC-3 prostate
# [5] = tested on: RPMI-8226 leukemia
# [6] = tested on: DU-145 prostate
# [7] = tested on: SK-MEL-28 melanoma
# [8] = tested on: ACHN renal
# [9] = tested on: MDA-MB-435
# [10] = tested on: CCRF-CEM leukemia
# [11] = tested on: SNB-78 CNS
# [12] = tested on: COLO 205 colon
# [13] = tested on: 786-0 renal
# [14] = tested on: HT29 colon
# [15] = tested on: LXFL 529 NSCLC
# [16] = tested on: HOP-62 NSCLC
# [17] = tested on: SK-MEL-5 melanoma
# [18] = tested on: SF-295 CNS
# [19] = tested on: SF-268 CNS
# [20] = tested on: DMS 273 small cell lung
# [21] = tested on: SW-620 colon
# [22] = tested on: HOP-92 NSCLC
# [23] = tested on: OVCAR-5 ovarian
# [24] = tested on: MDA-N
# [25] = tested on: DMS 114 small cell lung
# [26] = tested on: DLD-1 colon
# [27] = tested on: A549 NSCLC
# [28] = tested on: SF-539 CNS
# [29] = tested on: UACC-257 melanoma
# [30] = tested on: MOLT-4 leukemia
# [31] = tested on: T-47D breast
# [32] = tested on: NCI-H460 lung
# [33] = tested on: SNB-75 CNS
# [34] = tested on: SN12C renal
# [35] = tested on: SK-OV-3 ovarian
# [36] = tested on: M14 melanoma
# [37] = tested on: OVCAR-3 ovarian
# [38] = tested on: IGROV1 ovarian
# [39] = tested on: HS 578T breast
# [40] = tested on: OVCAR-8 ovarian
# [41] = tested on: U251 CNS
# [42] = tested on: CAKI-1 renal
# [43] = tested on: A498 renal
# [44] = tested on: UO-31 renal
# [45] = tested on: HL-60(TB) leukemia
# [46] = tested on: HCT-116 colon
# [47] = tested on: EKVX NSCLC
# [48] = tested on: OVCAR-4 ovarian
# [49] = tested on: TK-10 renal
# [50] = tested on: XF 498 CNS
# [51] = tested on: K-562 leukemia
# [52] = tested on: RXF 393 renal
# [53] = tested on: SR leukemia
# [54] = tested on: HCT-15 colon
# [55] = tested on: HOP-18 NSCLC
# [56] = tested on: NCI-H23 lung
# [57] = tested on: MALME-3M melanoma
# [58] = tested on: KM12 colon
# [59] = tested on: UACC-62 melanoma
# [60] = tested on: LOX IMVI melanoma
# [61] = tested on: SK-MEL-2 melanoma
# [62] = tested on: NCI-H226 lung
# [63] = tested on: MCF7 breast
structure (smiles),measurement,setting,value
COc1ccc2c(c1)[C@@H](NC(C)=O)CCc1cc(OC)c(OC)c(OC)c1-2,TGI,[1],13 µM
same,TGI,[2],> 10.5 µM
same,TGI,[3],> 100 µM
same,TGI,[4],> 4.75 µM
same,TGI,[5],> 100 µM
same,TGI,[6],0.0433 µM
same,TGI,[7],> 100 µM
same,TGI,[8],> 100 µM
same,TGI,[9],0.0244 µM
same,TGI,[10],> 100 µM
same,TGI,[11],> 100 µM
same,TGI,[12],0.02 µM
same,TGI,[13],> 100 µM
same,TGI,[14],0.124 µM
same,TGI,[15],> 100 µM
same,TGI,[16],> 100 µM
same,TGI,[17],0.0298 µM
same,TGI,[18],< 0.215 µM
same,TGI,[19],> 90.4 µM
same,TGI,[20],> 100 µM
same,TGI,[21],> 100 µM
same,TGI,[22],> 9.04 µM
same,TGI,[23],> 100 µM
same,TGI,[24],< 0.0204 µM
same,TGI,[25],0.366 µM
same,TGI,[26],> 100 µM
same,TGI,[27],> 100 µM
same,TGI,[28],< 0.0154 µM
same,TGI,[29],> 100 µM
same,TGI,[30],> 42.5 µM
same,TGI,[31],> 100 µM
same,TGI,[32],> 15.8 µM
same,TGI,[33],12.9 µM
same,TGI,[34],> 100 µM
same,TGI,[35],4.1 µM
same,TGI,[36],> 22.6 µM
same,TGI,[37],< 0.215 µM
same,TGI,[38],> 100 µM
same,TGI,[39],> 100 µM
same,TGI,[40],1.27 µM
same,TGI,[41],2.02 µM
same,TGI,[42],99 µM
same,TGI,[43],> 100 µM
same,TGI,[44],> 100 µM
same,TGI,[45],< 0.0142 µM
same,TGI,[46],0.528 µM
same,TGI,[47],> 100 µM
same,TGI,[48],> 100 µM
same,TGI,[49],> 100 µM
same,TGI,[50],16.2 µM
same,TGI,[51],> 100 µM
same,TGI,[52],> 8.58 µM
same,TGI,[53],> 90.2 µM
same,TGI,[54],> 30.9 µM
same,TGI,[55],> 100 µM
same,TGI,[56],2.88 µM
same,TGI,[57],> 100 µM
same,TGI,[58],0.039 µM
same,TGI,[59],> 26.8 µM
same,TGI,[60],> 75.6 µM
same,TGI,[61],> 21.5 µM
same,TGI,[62],> 16.3 µM
same,TGI,[63],> 100 µM
